What was measured:
[1] = target: T1, Amine oxidase [flavin-containing] A (Homo sapiens, UniProt P21397); assay: MAO Assay; settings: pH 7.4; 37 °C
T1 sequence (P21397 whole entry): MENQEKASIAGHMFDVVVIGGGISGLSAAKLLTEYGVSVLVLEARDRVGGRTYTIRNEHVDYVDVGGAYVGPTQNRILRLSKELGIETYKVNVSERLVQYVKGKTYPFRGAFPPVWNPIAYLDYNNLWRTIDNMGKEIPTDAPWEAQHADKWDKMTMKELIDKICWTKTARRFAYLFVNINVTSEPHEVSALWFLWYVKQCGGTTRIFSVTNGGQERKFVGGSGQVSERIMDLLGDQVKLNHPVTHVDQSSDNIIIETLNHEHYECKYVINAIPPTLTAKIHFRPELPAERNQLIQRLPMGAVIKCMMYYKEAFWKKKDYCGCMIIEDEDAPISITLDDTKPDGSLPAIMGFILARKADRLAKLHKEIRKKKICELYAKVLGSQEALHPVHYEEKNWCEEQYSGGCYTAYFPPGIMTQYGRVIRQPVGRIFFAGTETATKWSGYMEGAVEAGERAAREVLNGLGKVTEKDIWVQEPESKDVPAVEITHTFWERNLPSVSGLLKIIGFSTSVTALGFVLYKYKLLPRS
Experimental: (§1) The reaction mixture (final volume 200 µL) contained 5 µg/mL MAO-A or MAO-B in a 50 mM sodium phosphate buffer pH 7.4, 1 mM p-tyramine (substrate for MAO-A) or 1 mM benzyl-amine (substrate for MAO-B), 1 U/mL HRP, and 200 µM AR was incubated, in the presence or absence of the inhibitors, at 37 °C for 45 min. The enzyme plus inhibitors were incubated at 37 °C for 20 min followed by the addition of the substrates, HRP and AR. The inhibitors were dissolved in 100% DMSO, and equivalent concentrations of DMSO alone (1-2%) were used as controls. Clorgyline (MAO-A inhibitor) or pargyline (MAO-B inhibitor) at 5 µM concentration was used as positive control for inhibition.

[2] = target: T2, Amine oxidase [flavin-containing] B (Homo sapiens, UniProt P27338); assay: MAO Assay; settings: pH 7.4; 37 °C
T2 sequence (P27338 whole entry): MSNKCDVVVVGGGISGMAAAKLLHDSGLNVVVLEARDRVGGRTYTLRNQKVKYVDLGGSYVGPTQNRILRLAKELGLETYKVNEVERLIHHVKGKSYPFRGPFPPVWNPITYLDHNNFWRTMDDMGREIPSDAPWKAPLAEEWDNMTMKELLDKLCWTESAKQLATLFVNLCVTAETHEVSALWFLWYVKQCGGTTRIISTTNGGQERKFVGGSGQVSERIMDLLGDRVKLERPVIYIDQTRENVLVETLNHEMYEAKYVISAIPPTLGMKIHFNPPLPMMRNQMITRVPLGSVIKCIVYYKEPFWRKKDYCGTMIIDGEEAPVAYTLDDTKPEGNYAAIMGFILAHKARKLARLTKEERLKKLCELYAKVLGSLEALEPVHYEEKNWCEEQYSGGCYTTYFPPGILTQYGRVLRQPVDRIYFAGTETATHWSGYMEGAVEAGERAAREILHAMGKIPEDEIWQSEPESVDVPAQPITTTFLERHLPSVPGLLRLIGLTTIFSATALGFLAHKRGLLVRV
Experimental: as §1

Ki [1] [µM]	Ki [2] [µM]	Compound
63	58	CC(C)=Cc1c(N=CCCCN(CCCN)Cc2ccccc2)c(O)c2ccccc2c1O [2‐({4‐[(3‐aminopropyl)(benzyl)amino]butyl}amino)‐3‐ (2‐methylprop‐1‐en‐1‐yl)naphthalene‐1,4‐dione (Compound c2)]
22	40	CC(C)=CCc1c(N=CCCCN(CCCN)Cc2ccccc2)c(O)c2ccccc2c1O [2‐({4‐[(3‐aminopropyl)(benzyl)amino]butyl}amino)‐3‐ (3‐methylbut‐2‐en‐1‐yl)naphthalene‐1,4‐dione (Compound a2)]
28	12	NCCCN(CCCC=Nc1cc(O)c2ccccc2c1O)Cc1ccccc1 [2‐({4‐[(3‐ aminopropyl)(benzyl)amino]butyl}amino)naphthalene‐ 1,4‐dione (Compound b2)]
35	18	CC(C)C=C1C(=O)C(=O)c2ccccc2C1=O
–	59	CC(C)=CCC1C(=O)C(=O)c2ccccc2C1=O (centres undefined) [4-hydroxy-3-(3-methylbut-2-enyl)naphthalene-1,2-dione]
